According to patent US20100069400A1, “METHODS FOR TREATING INFLAMMATION AND RELATED CONDITIONS” (Ore Pharmaceuticals Inc., priority 2008, published 2010):

Tests used:
CXCL1 (GRO/KC) = assay: plasma CXCL1 (GRO/KC) in normal unstimulated rats, bead-based multiplex immunoassay (Luminex); format: in vivo; conditions: 1 and 5 mg/kg oral twice daily for 7 days, blood approximately 4 hours after last dose, not dose-proportionately
Method: (§1) The effects of irindalone were also investigated in normal unstimulated rats that were subject to twice-daily oral dosing with irindalone (1 and 5 mg/kg) for 7 consecutive days. Blood was collected approximately 4 hours after administration of the last dose, plasma was prepared and cytokines were measured using a bead-based multiplex immunoassay (Luminex Corp.).

IL-1α = assay: LPS-induced plasma IL-1α, bead-based immunoassay (Luminex); format: in vivo, mice; conditions: mouse plasma
Method: (§2) The intriguing bi-phasic modulation of NF-κB activation described in Example 1 was further investigated by repeating the LPS induction experiment and performing subsequent imaging analysis at 0 hour and 2, 4, 6 and 24 hours post-LPS treatment. Moreover, blood samples were collected at each of the timepoints and plasma was prepared for evaluation of effects of irindalone on quantities of circulating cytokines. […] Specifically, irindalone suppressed LPS-induced pro-inflammatory cytokines eotaxin (FIG. 3A) and TNF-α (FIG. 3B) at the 2-hour time point and IL-1α at both 2 hours and 6 hours post-LPS injection (FIG. 3C).

IL-10 = assay: LPS-induced plasma IL-10, bead-based immunoassay (Luminex); format: in vivo, mice; conditions: all time points measured (2, 4, 6, 24 hours post-LPS), most pronounced at 2 and 4 hours; mouse plasma
Method: as §2

NF-κB [1] = assay: in vivo imaging of LPS-induced NF-κB:luciferase reporter activation in NF-κB:LUC transgenic mice; conditions: for LPS-induced NF-κB reporter (fold change from 0 hour), Example 1: 1 or 10 mg/kg p.o. one hour prior to sLPS 2.5 mg/kg i.v., whole body imaging; for LPS-induced NF-κB activation, Example 2 (FIG. 2): repeat experiment
Method: Effects of irindalone on rodent physiological processes were evaluated using bio-photonic in vivo imaging. Specifically, this technology was used to investigate temporal and spatial modulation of physiological processes following acute compound administration. Transgenic mice expressing a firefly luciferase reporter driven by a series of promoters that represent a wide spectrum of potential disease states were used. Light emitted by luciferase in the presence of a luciferin substrate was detected and analyzed using a highly sensitive CCD imaging system. Mice were anesthetized and imaged at the indicated time points followed by visual and quantitative analysis based on counting photons of light emitted from specific regions of interest. Observations were followed by confirmatory and additional heuristic studies, including direct measurement of luciferase activity in harvested tissues and organs. As detailed below, the properties of irindalone were analyzed on three distinct transgenic lines, NF-κB:LUC, AP-1:LUC and HO-1:LUC. For this Example, the NF-κB transgenic mouse line was constructed using three NF-κB response elements fused to a firefly luciferase reporter. The effect of acute compound administration on inflammatory and immunomodulatory processes was monitored using activation of the luciferase reporter as a surrogate readout for activation of NF-κB transcription factor. […] For these studies, male mice (n=5 per group) were administered irindalone (0, 1 or 10 mg/kg, p.o.) one hour prior to injection with soluble lipopolysaccharide (sLPS, 2.5 mg/kg, i.v.). Whole body images were obtained prior to drug pretreatment (0 hour time point) and again at 2, 4, and 6 hours post-LPS treatment. […] The intriguing bi-phasic modulation of NF-κB activation described in Example 1 was further investigated by repeating the LPS induction experiment and performing subsequent imaging analysis at 0 hour and 2, 4, 6 and 24 hours post-LPS treatment. Moreover, blood samples were collected at each of the timepoints and plasma was prepared for evaluation of effects of irindalone on quantities of circulating cytokines.

5-HT2A = 5-HT2A (Homo sapiens, UniProt P28223); conditions: cited from earlier work
Chain of 5-HT2A (P28223 whole entry, species assumed): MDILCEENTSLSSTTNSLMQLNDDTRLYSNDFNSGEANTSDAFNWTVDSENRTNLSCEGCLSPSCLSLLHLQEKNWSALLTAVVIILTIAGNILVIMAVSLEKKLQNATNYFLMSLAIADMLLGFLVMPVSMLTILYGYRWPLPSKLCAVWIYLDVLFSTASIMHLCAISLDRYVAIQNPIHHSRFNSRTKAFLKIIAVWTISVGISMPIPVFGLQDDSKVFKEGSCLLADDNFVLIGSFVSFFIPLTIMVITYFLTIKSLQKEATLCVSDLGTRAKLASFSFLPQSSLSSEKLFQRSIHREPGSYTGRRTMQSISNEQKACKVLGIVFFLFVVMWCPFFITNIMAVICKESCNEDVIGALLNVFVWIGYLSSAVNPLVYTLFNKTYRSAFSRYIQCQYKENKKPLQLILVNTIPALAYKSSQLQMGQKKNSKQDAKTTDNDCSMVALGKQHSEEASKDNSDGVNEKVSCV

TNF-α = assay: LPS-induced plasma TNF-α, bead-based immunoassay (Luminex); format: in vivo, mice; conditions: 2-hour time point post-LPS; mouse plasma
Method: as §2

adrenergic receptor al = conditions: compared with its 5-HT2A affinity; cited from earlier work
histamine H1 receptor = histamine H1 receptor (Homo sapiens, UniProt P35367); conditions: compared with its 5-HT2A affinity; cited from earlier work
Chain of histamine H1 receptor (P35367 whole entry, species assumed): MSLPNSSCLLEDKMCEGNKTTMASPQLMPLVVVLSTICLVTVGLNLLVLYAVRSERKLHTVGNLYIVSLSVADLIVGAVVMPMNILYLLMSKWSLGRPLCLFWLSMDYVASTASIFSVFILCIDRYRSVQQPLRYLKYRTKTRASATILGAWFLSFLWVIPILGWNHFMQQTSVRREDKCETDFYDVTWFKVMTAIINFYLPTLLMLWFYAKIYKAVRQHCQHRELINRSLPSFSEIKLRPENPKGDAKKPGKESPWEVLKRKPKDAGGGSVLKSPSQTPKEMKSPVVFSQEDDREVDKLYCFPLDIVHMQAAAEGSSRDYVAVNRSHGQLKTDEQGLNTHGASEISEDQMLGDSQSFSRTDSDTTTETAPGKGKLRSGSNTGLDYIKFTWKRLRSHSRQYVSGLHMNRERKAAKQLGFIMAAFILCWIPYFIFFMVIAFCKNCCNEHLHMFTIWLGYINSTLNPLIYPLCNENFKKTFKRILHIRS

HO-1 promoter = assay: CdCl2-induced HO-1:LUC promoter activation in HO-1:LUC transgenic mice; format: in vivo
Description: The HO-1 luciferase transgenic mouse line was constructed using 15,000 base pairs of the HO-1 promoter fused to a firefly luciferase reporter. The HO-1 promoter is highly responsive to oxidative stress, hypoxia and other stimuli that influence the oxidative state of the animal. Increased expression of the HO-1 pathway limits tissue damage in response to a wide variety of proinflammatory stimuli associated with oxidative stress including hypoxia, hyperoxia, cytokines, nitric oxide (NO), heavy metals, ultraviolet-A radiation, heat shock, shear stress, hydrogen peroxide, and thiol (—SH)-reactive substances, endotoxin, allograft rejection, etc. This promoter region has several enhancer sequences that confer responsiveness to the wide set of stimuli mentioned above. In this mouse model, luciferase expression is an indicator of the induction of the HO-1 promoter/gene expression. In order to assess the ability of irindalone to modulate the oxidative state of mice stressed with cadmium chloride (CdCl2), male mice (n=5 per group) were dosed with irindalone (0, 1 or 10 mg/kg, p.o.) one hour prior to injection with CdCl2 (2 mg/kg, i.v.). Whole body images were obtained prior to irindalone pretreatment (0 hour) and again at 4, 6, and 24 hours post-CdCl2 treatment. Irindalone suppressed CdCl2-induced luciferase expression (FIG. 6). […] Additional anatomical regions also posted trends in suppression at early time points.

eotaxin = assay: LPS-induced plasma eotaxin, bead-based immunoassay (Luminex); format: in vivo, mice; conditions: 2-hour time point post-LPS; mouse plasma
Method: as §2

NF-κB [2] = assay: LPS-induced NF-κB activation in harvested organs and tissues (luciferase/protein assay) of NF-κB:LUC transgenic mice; format: in vivo; conditions: 10 mg/kg p.o. one hour prior to LPS 2.5 mg/kg i.v.; 2 hours post-LPS; most pronounced changes in visceral fat, gastrointestinal tract and brain
Method: To determine whether these effects can be localized to a particular tissue or organ system, additional experimentation was performed (similar in design to that as described in Example 1). For these studies, male mice (n=5 per group) were administered irindalone (0 and 10 mg/kg, p.o.) one hour prior to injection with LPS (2.5 mg/kg, i.v.). Whole body images were obtained prior to drug pretreatment (0 hour) and again at 2 hours post-LPS treatment (data not shown). A broad collection of internal tissues and organs were then removed and snap frozen for further analysis. Specifically, harvested tissues were homogenized, cells were lysed and utilized for luciferase and protein quantification assays to obtain relative units of light/μg protein. Results (FIG. 4) illustrate normalized comparisons between LPS alone versus irindalone+LPS.

IL-13 = assay: plasma IL-13 in normal unstimulated rats, bead-based multiplex immunoassay (Luminex); format: in vivo; conditions: 1 and 5 mg/kg oral twice daily for 7 days, blood approximately 4 hours after last dose
Method: as §1

AP-1 = assay: TPA-induced AP-1:LUC reporter activation in skin of AP-1:LUC transgenic mice; format: in vivo; conditions: irindalone 1 and 10 mg/kg p.o. (dose-dependent) or DEX 4.5 mg/kg i.p. one hour prior to topical TPA 10 μg
Method: The AP-1:LUC transgenic line was constructed with four copies of the AP-1 response element fused to a firefly luciferase reporter. […] For the current studies, the backs of mice (n=5 per group) were shaved (area size approximately 1.5×3 cm) and pre-imaged. Mice were administered vehicle (saline), irindalone (dosing at 1 and 10 mg/kg; p.o.) or dexamethasone as a positive control (DEX, 4.5 mg/kg, i.p.) one hour prior to topical application of the phorbol ester 12-O-tetradecanoyl-phorbol-13-acetate (TPA, 0.05 mg/ml in acetone; total dose 10 μg).

SMILES | CXCL1 (GRO/KC) levels in plasma (CXCL1 (GRO/KC)) | LPS-induced IL-1α level in plasma (IL-1α; 2 hours post-LPS injection) | LPS-induced IL-1α level in plasma (IL-1α; 6 hours post-LPS injection) | anti-inflammatory cytokine IL-10 level in plasma (IL-10) | LPS-induced NF-κB reporter (fold change from 0 hour), Example 1 (NF-κB [1]; after 2 hours) | LPS-induced NF-κB reporter (fold change from 0 hour), Example 1 (NF-κB [1]; after 6 hours) | LPS-induced NF-κB activation, Example 2 (FIG. 2) (NF-κB [1]; early time point (2 hours) post-LPS) | LPS-induced NF-κB activation, Example 2 (FIG. 2) (NF-κB [1]; later time points (4, 6, 24 hours imaged) post-LPS) | IC50 (5-HT2A; read-out: affinity (IC50) for 5-HT2A) | LPS-induced TNF-α level in plasma (TNF-α) | affinity for adrenergic receptor al, in words (adrenergic receptor al) | affinity for histamine H1 receptor, in words (histamine H1 receptor) | CdCl2-induced luciferase expression (HO-1 promoter) (HO-1 promoter; 1 or 10 mg/kg p.o. one hour prior to CdCl2 2 mg/kg i.v., whole body images at 4, 6, 24 hours) | CdCl2-induced luciferase expression (HO-1 promoter), mid back region (HO-1 promoter; mid back region, all time points (4, 6, 24 hours)) | CdCl2-induced luciferase expression (HO-1 promoter), sublingual and lower back regions (HO-1 promoter; sublingual and lower back regions, earlier time points) | LPS-induced eotaxin level in plasma (eotaxin) | LPS-induced NF-κB activation in harvested tissues (units of light/μg protein, normalized) (NF-κB [2]) | IL-13 levels in plasma compared to vehicle (IL-13) | TPA-induced AP-1 activation in skin (AP-1) | 5-HT2A affinity, in words (5-HT2A; compared with irindalone)
O=C1NCCN1CCN1CCN([C@@H]2C[C@@H](c3ccc(F)cc3)c3ccccc32)CC1 [Irindalone, (+)-(1R,3S)-1-[2-[4-[3-(p-fluorophenyl)-1-indanyl]-1-piperazinyl]-ethyl]-2-imidazolidinone] | lowered | suppressed | suppressed | increase | broad suppression | broad enhancement | suppression | enhancement | 3.4 nM | suppressed | somewhat weaker affinity | somewhat weaker affinity | suppressed | Dramatic suppression | Dramatic suppression | suppressed | Tissue-Selective Effect | increased | dramatically repressed | 
O=C1NCCN1CCN1CCN([C@H]2C[C@H](c3ccc(F)cc3)c3ccccc32)CC1 [Lu 21-099] |  |  |  |  |  |  |  |  |  |  |  |  |  |  |  |  |  |  |  | weaker 5-HT2A affinity
